These results are taken from patent publication US20250042929A1, “NEW CRYSTAL FORM OF TRISACCHARIDE” (SHANDONG HENGLU BIOTECH. CO., LTD., priority 2022, published 2025).

Common to all, as to assay type: physicochemical
Data set [1] in a line: Stability study, sealed in aluminum-plastic composite film, 40° C. and 75% relative humidity. As for the experimental part: In this invention, the quantification of LNTII is performed using high-performance liquid chromatography (HPLC) under the conditions listed below:
Chromatographic column: Asahipak NH2P-504E, 4.6 mm×250 mm, 5 μm particle size; mobile phase composition: acetonitrile to water in a ratio of 65:35; flow rate: 1 mL/min; detection method: UV-VIS detector; wavelength: 210 nm; column temperature: 30° C.; injection volume: 10 μL; total run time: 30 minutes.
Separately weigh 10 g of amorphous LNTII powder produced in Examples 1-7. Seal each sample with aluminum-plastic composite film. Store all samples in a constant temperature and humidity chamber at 40° C. and 75% relative humidity. Retrieve samples at the end of January, February, and March to assess the LNTII content and observe any changes in appearance. Record the outcomes in Table 5.

Data set [2] in a line: Hygroscopicity study in constant temperature and humidity chamber. The settings on record: for Added weight: about 1 g sample; for Before the experiment, appearance: before placing in chamber; for Moisture rate: Example 9, after 5 days. How it is done: • Step 1: Preparation of glass petri dishes
One day before the experiment, place glass petri dishes (without lids) in a constant temperature and humidity chamber set at 25±1° C. and 75±2% relative humidity for 4 hours. Take out the dishes, accurately weigh, and repeat until consistent weight readings are obtained. Record the data in Table 3. • Step 2: Weigh the amorphous LNTII powder and LNTII crystalline form A from Example 1 separately, place them in the pre-weighed petri dishes from Step 1 in a constant temperature and humidity chamber set at 25° C. and 75% relative humidity. After 5 days, examine any physical changes, reweigh the samples, and calculate their hygroscopicity. Record the results in Tables 2 and 3. A comparison of the physical appearances before and after moisture exposure are depicted in FIG. 5 and FIG. 6.
Replicating the procedure outlined in Example 8, evaluate the LNTII crystalline form A samples obtained from Examples 1-7. Place the samples in pre-weighed petri dishes within a constant temperature and humidity chamber at 25° C. and 75% relative humidity. After 5 days, inspect for any changes in appearance, weigh the samples, and calculate their hygroscopicity. Document the findings in Table 4.

Data set [3] is described as follows: Stability study, sealed in aluminum-plastic composite film, 40° C. and 75% relative humidity. The settings on record: 3 months.
[4] abbreviates: Example 8, 25° C., 75% relative humidity, 5 days.
Where [5] appears, read: End of 1 month, 40° C., 75% relative humidity, HPLC.
Setting [6] is: End of 2 months, 40° C., 75% relative humidity, HPLC.
[7] abbreviates: End of 3 months, 40° C., 75% relative humidity, HPLC.

For `CC(=O)NC1C(O)[C@H](O)C(CO)O[C@H]1OC1C(O)[C@H](O[C@H]2C(CO)OC(O)C(O)C2O)OC(CO)[C@@H]1O` (stereo partly shown) [LNTII amorphous powder, Lacto-N-triose II, reference compound], the Content in data set [1] (Day 0, LNTII content by HPLC, listed as Amorphous LNTII powder) stood at 91.24%; in data set [1] (End of 1 month, 40° C., 75% relative humidity, HPLC, listed as Amorphous LNTII powder), 91.01%; in data set [1] (End of 2 months, 40° C., 75% relative humidity, HPLC, listed as Amorphous LNTII powder) it was 90.86%; in data set [1] (End of 3 months, 40° C., 75% relative humidity, HPLC, listed as Amorphous LNTII powder) it was 90.01%. For the same molecule, the “Moisture rate (moisture absorption rate = added weight/sample weight × 100%)” value in data set [2] (setting [4]) is given as 29.47%. In addition, the “Day 5, appearance” value in data set [2] (Example 8, 25° C., 75% relative humidity, 5 days, open petri dish) was “Light yellow, paste”. Also, in data set [2] (setting [4]), the Added weight turned out to be 0.2951 g. The “Before the experiment, appearance” value in data set [2] (Example 8) is “Off-white powder”. Further, in data set [3] (listed as amorphous LNTII powder), the “Content and appearance throughout the stability study, in words” value was “decreases the content and the color gradually fades to pale yellow”.
Regarding `CC(=O)NC1C(O)[C@H](O)C(CO)O[C@H]1OC1C(O)[C@H](O[C@H]2C(CO)OC(O)C(O)C2O)OC(CO)[C@@H]1O` (stereo partly shown) [LNTII form A, Lacto-N-triose II], the “Stability (from appearance changes and hygroscopicity results), in words” value in data set [2] (25° C., 75% relative humidity, 5 days, crystalline form A compared with amorphous powder) was “superior to the amorphous powder”. Further, in data set [2] (setting [4]), the “Moisture rate (moisture absorption rate = added weight/sample weight × 100%)” value was 14.17% and the Added weight turned out to be 0.1418 g. In data set [2] (Example 8), the “Before the experiment, appearance” value is reported as “Off-white”. In addition, in data set [3] (listed as LNTII crystalline form A), the “Content and appearance throughout the stability study, in words” value is “maintains its content and appearance throughout the stability study”.
As for `CC(=O)NC1C(O)[C@H](O)C(CO)O[C@H]1OC1C(O)[C@H](O[C@H]2C(CO)OC(O)C(O)C2O)OC(CO)[C@@H]1O` (stereo partly shown) [Example 6 Crystalline form A, Lacto-N-triose II], the Content in data set [1] (Day 0, LNTII content by HPLC) turned out to be 91.98%; in data set [1] (setting [5]), 91.94%; in data set [1] (setting [6]), 91.84%; in data set [1] (setting [7]), 91.93%. For the same molecule, in data set [2] (25° C., 75% relative humidity), the Moisture rate is given as 13.32%.
The matching figures for `CC(=O)NC1C(O)[C@H](O)C(CO)O[C@H]1OC1C(O)[C@H](O[C@H]2C(CO)OC(O)C(O)C2O)OC(CO)[C@@H]1O` (stereo partly shown) [Example 2 Crystalline form A, Lacto-N-triose II]: 98.18%, 98.15%, 98.22%, 98.23% and 13.26%.
In the case of `CC(=O)NC1C(O)[C@H](O)C(CO)O[C@H]1OC1C(O)[C@H](O[C@H]2C(CO)OC(O)C(O)C2O)OC(CO)[C@@H]1O` (stereo partly shown) [Example 3 Crystalline form A, Lacto-N-triose II], the Content amounted to 97.87% in data set [1] (Day 0, LNTII content by HPLC); 97.90% in data set [1] (setting [5]); 97.93% in data set [1] (setting [6]); 97.88% in data set [1] (setting [7]). Also, the Moisture rate in data set [2] (25° C., 75% relative humidity) amounted to 14.09%.
On to `CC(=O)NC1C(O)[C@H](O)C(CO)O[C@H]1OC1C(O)[C@H](O[C@H]2C(CO)OC(O)C(O)C2O)OC(CO)[C@@H]1O` (stereo partly shown) [Example 1 Crystalline form A, Lacto-N-triose II], for which the Content in data set [1] (Day 0, LNTII content by HPLC) came out at 97.98%; in data set [1] (setting [5]), 98.02%; in data set [1] (setting [6]) it was 97.97%; in data set [1] (setting [7]) it was 97.96%. Also, in data set [2] (25° C., 75% relative humidity), the Moisture rate is given as 12.87%.
In the same order, the values of `CC(=O)NC1C(O)[C@H](O)C(CO)O[C@H]1OC1C(O)[C@H](O[C@H]2C(CO)OC(O)C(O)C2O)OC(CO)[C@@H]1O` (stereo partly shown) [Example 4 Crystalline form A, Lacto-N-triose II] are 92.30%, 92.32%, 92.33%, 92.27% and 13.61%.
Regarding `CC(=O)NC1C(O)[C@H](O)C(CO)O[C@H]1OC1C(O)[C@H](O[C@H]2C(CO)OC(O)C(O)C2O)OC(CO)[C@@H]1O` (stereo partly shown) [Example 5 Crystalline form A, Lacto-N-triose II], the Content in data set [1] (Day 0, LNTII content by HPLC) was 92.57%; in data set [1] (setting [5]), 92.61%; in data set [1] (setting [6]) it was 92.51%; in data set [1] (setting [7]), 92.64%. Moreover, the Moisture rate in data set [2] (25° C., 75% relative humidity) is recorded as 13.79%.
In the same order, the values of `CC(=O)NC1C(O)[C@H](O)C(CO)O[C@H]1OC1C(O)[C@H](O[C@H]2C(CO)OC(O)C(O)C2O)OC(CO)[C@@H]1O` (stereo partly shown) [Example 7 Crystalline form A, Lacto-N-triose II] are 98.58%, 98.56%, 98.48%, 98.56% and 12.74%.
